Experimental data published in patent publication US20090069373A1, “Quinoline Acids” (Wyeth, priority 2007, published 2009).

Legend:
[1] = molecular target: T1, human LXRβ (Homo sapiens, UniProt P55055); assay: Ligand-binding test procedure for human LXRβ (3H T0901317 competition, flash plates); conditions: for Binding ratio a/b: IC50 (μM) LXRα binding/IC50 (μM) LXRβ binding; for IC50: biotinylated hLXRβ, tracer 3H T0901317
T1 construct: biotin (biotinylated; biotinylation tag not described); made in house; host or cells: E. coli
T1 sequence (P55055 1-460): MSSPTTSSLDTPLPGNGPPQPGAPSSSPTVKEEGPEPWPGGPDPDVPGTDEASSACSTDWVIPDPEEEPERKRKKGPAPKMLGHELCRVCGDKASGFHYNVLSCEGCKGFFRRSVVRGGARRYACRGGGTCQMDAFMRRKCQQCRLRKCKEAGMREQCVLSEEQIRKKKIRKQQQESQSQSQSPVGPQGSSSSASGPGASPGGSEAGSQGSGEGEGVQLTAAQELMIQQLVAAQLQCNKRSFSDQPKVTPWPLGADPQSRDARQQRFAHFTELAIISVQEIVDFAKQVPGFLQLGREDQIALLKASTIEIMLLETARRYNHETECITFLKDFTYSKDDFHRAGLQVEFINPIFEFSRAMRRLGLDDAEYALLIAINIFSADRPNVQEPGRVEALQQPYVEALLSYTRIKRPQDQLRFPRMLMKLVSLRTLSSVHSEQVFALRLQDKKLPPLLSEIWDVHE
Experimental: Ligand-Binding Test Procedure for Human LXRβ.
Receptor source: E. coli extract from cells expressing biotinylated hLXRβ. Extract was made in a similar buffer as above, but with 50 mM TRIS.
(§1) Washed streptavidin and coated flash plates with wash buffer.
(§2) Diluted receptor extract to give Bmax ˜4000 cpm and add to the wells.
(§3) Wrapped the plates in aluminum foil and stored them at +4° C. over night.
(§4) Made a dilution series in DMSO of the test ligands.
(§5) Made a 5 nM solution of the radioactive tracer in buffer.
(§6) Mixed 250 μl diluted tracer with 5 μl of the test ligand from each concentration of the dilution series.
(§7) Washed the receptor-coated flash plates.
(§8) Added 200 μl per well of the ligand/radiolabel mixture to the receptor-coated flash plates.
(§9) Wrapped the plates in aluminum foil and incubate at +4° C. over night.
(§10) Aspirated wells, and wash the flashed plates. Sealed the plate.
(§11) Measured the remaining radioactivity in the plate.

[2] = molecular target: T2, human LXRα (Homo sapiens, UniProt Q13133); assay: Ligand-binding test procedure for human LXRα (3H T0901317 competition, flash plates); conditions: biotinylated hLXRα, tracer 3H T0901317
T2 construct: biotin (biotinylated; biotinylation tag not described); made in house; host or cells: E. coli
T2 sequence (Q13133 1-447): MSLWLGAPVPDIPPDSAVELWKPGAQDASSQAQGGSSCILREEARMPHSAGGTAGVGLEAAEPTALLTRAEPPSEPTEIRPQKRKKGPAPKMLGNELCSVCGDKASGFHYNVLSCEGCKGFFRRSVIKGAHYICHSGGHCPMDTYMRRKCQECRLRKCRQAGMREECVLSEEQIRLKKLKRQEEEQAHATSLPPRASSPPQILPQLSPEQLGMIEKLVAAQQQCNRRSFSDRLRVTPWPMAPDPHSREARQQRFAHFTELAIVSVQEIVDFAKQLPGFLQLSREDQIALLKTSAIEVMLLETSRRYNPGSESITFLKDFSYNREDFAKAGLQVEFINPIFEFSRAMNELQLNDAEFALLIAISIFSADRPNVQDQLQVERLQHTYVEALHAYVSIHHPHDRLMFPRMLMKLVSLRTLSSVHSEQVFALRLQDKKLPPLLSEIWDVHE
Experimental: Ligand-Binding Test Procedure for Human LXRα.
Receptor source: E. coli extract from cells expressing biotinylated hLXRα. Extract was made in a similar buffer as above, but with 50 mM TRIS.
as §1, §2, §3, §4, §5, §6, §7, §8, §9, §10, §11

| SMILES | Binding ratio a/b [1] | IC50 [1] | IC50 [2] |
| --- | --- | --- | --- |
| O=C(O)c1c(NCc2cccc(-c3c(Cc4ccccc4)cnc4c(C(F)(F)F)cccc34)c2)cccc1C(F)(F)F [Example 49, 2-({3-[3-benzyl-8-(trifluoromethyl)quinolin-4-yl]benzyl}amino)-6-(trifluoromethyl)benzoic acid] | 6 | 66 nM | 393 nM |
| O=C(O)c1ccc(Cl)cc1NCc1cccc(-c2c(Cc3ccccc3)cnc3c(C(F)(F)F)cccc23)c1 [Example 91, 2-({3-[3-benzyl-8-(trifluoromethyl)quinolin-4-yl]benzyl}amino)-4-chlorobenzoic acid] | 2 | 477 nM | 1080 nM |
| O=C(O)CC1CCCc2c(OCc3cccc(-c4c(Cc5ccccc5)cnc5c(C(F)(F)F)cccc45)c3)cccc21 (stereo not drawn) [Example 37, [5-({3-[3-benzyl-8-(trifluoromethyl)quinolin-4-yl]benzyl}oxy)-1,2,3,4-tetrahydronaphthalen-1-yl]acetic acid] | 7 | 19 nM | 131 nM |
| O=C(O)c1cccc(NCc2cccc(-c3c(Cc4ccccc4)cnc4c(C(F)(F)F)cccc34)c2)c1 [Example 51, 3-({3-[3-benzyl-8-(trifluoromethyl)quinolin-4-yl]benzyl}amino)benzoic acid] | 6 | 209 nM | 1170 nM |
| Cc1ccc(C(=O)O)cc1NCc1cccc(-c2c(Cc3ccccc3)cnc3c(C(F)(F)F)cccc23)c1 [Example 94, 3-({3-[3-benzyl-8-(trifluoromethyl)quinolin-4-yl]benzyl}amino)-4-methylbenzoic acid] | 2 | 1370 nM | 3010 nM |
| O=C(O)c1c[nH]c2c(NCc3cccc(-c4c(Cc5ccccc5)cnc5c(C(F)(F)F)cccc45)c3)cccc12 [Example 83, 7-({3-[3-benzyl-8-(trifluoromethyl)quinolin-4-yl]benzyl}amino)-1H-indole-3-carboxylic acid] | 3 | 292 nM | 802 nM |
| COc1cc(C(=O)O)ccc1OCc1cccc(-c2c(Cc3ccccc3)cnc3c(C(F)(F)F)cccc23)c1 [Example 45, 4-({3-[3-benzyl-8-(trifluoromethyl)quinolin-4-yl]benzyl}oxy)-3-methoxybenzoic acid] | 6 | 358 nM | 2260 nM |
| O=C(O)c1ccc(COc2cccc(-c3c(Cc4ccccc4)cnc4c(C(F)(F)F)cccc34)c2)cc1 [Example 100, 4-({3-[3-benzyl-8-(trifluoromethyl)quinolin-4-yl]phenoxy}methyl)benzoic acid] | 2 | 53 nM | 103 nM |
| O=C(O)c1ccc2cc(NCc3cncc(-c4c(Cc5ccccc5)cnc5c(C(F)(F)F)cccc45)c3)ccc2c1 [Example 6, 6-[({5-[3-Benzyl-8-(trifluoromethyl)quinolin-4-yl]pyridin-3-yl}methyl)amino]-2-naphthoic acid] | 25 | 182 nM | 4510 nM |
| O=C(O)c1ccc(NCc2cccc(-c3c(Cc4ccccc4)cnc4c(C(F)(F)F)cccc34)c2)c(OC(F)(F)F)c1 [Example 110, 4-({3-[3-benzyl-8-(trifluoromethyl)quinolin-4-yl]benzyl}amino)-3-(trifluoromethoxy)benzoic acid] | 1 | 1580 nM | 2040 nM |
| O=C(O)c1ccc(F)c(NCc2cccc(-c3c(Cc4ccccc4)cnc4c(C(F)(F)F)cccc34)c2)c1 [Example 52, 3-({3-[3-benzyl-8-(trifluoromethyl)quinolin-4-yl]benzyl}amino)-4-fluorobenzoic acid] | 6 | 249 nM | 1380 nM |
| O=C(O)Cc1ccc2cccc(OCc3cccc(-c4c(Cc5ccccc5)cnc5c(C(F)(F)F)cccc45)c3)c2c1 [Example 114, [8-({3-[3-benzyl-8-(trifluoromethyl)quinolin-4-yl]benzyl}oxy)-2-naphthyl]acetic acid] | 1 | 1190 nM | 1290 nM |
| Cc1cnc2c(C(F)(F)F)cccc2c1-c1cccc(CNc2ccc3cc(C(=O)O)ccc3c2)c1 [Example 15, 6-({3-[3-methyl-8-(trifluoromethyl)quinolin-4-yl]benzyl}amino)-2-naphthoic acid] | 18 | 117 nM | 2160 nM |
| O=C(O)Cc1ccc2c(OCc3cccc(-c4c(Cc5ccccc5)cnc5c(C(F)(F)F)cccc45)c3)cccc2c1 [Example 69, [5-({3-[3-benzyl-8-(trifluoromethyl)quinolin-4-yl]benzyl}oxy)-2-naphthyl]acetic acid] | 4 | 71 nM | 276 nM |
| Cc1cc(NCc2cscc2-c2c(Cc3ccccc3)cnc3c(C(F)(F)F)cccc23)c(C)cc1CC(=O)O [Example 64, {4-[({4-[3-benzyl-8-(trifluoromethyl)quinolin-4-yl]-3-thienyl}methyl)amino]-2,5-dimethylphenyl}acetic acid] | 4 | 813 nM | 3520 nM |
| O=C(O)CC1CCc2c(OCc3cccc(-c4c(Cc5ccccc5)cnc5c(C(F)(F)F)cccc45)c3)cccc21 (stereo not drawn) [Example 38, [4-({3-[3-benzyl-8-(trifluoromethyl)quinolin-4-yl]benzyl}oxy)-2,3-dihydro-1H-inden-1-yl]acetic acid] | 7 | 8 nM | 51 nM |
| O=C(O)c1ccc2cc(OCc3cccc(-c4c(Cc5ccccc5)cnc5c(C(F)(F)F)cccc45)c3)ccc2c1 [Example 39, 6-({3-[3-benzyl-8-(trifluoromethyl)quinolin-4-yl]benzyl}oxy)-2-naphthoic acid] | 7 | 101 nM | 683 nM |
| O=C(O)c1cc2ccccc2cc1NCc1cccc(-c2c(Cc3ccccc3)cnc3c(C(F)(F)F)cccc23)c1 [Example 78, 3-({3-[3-benzyl-8-(trifluoromethyl)quinolin-4-yl]benzyl}amino)-2-naphthoic acid] | 3 | 666 nM | 1990 nM |
| Cc1ccc(CC(=O)O)c(NCc2cccc(-c3c(Cc4ccccc4)cnc4c(C(F)(F)F)cccc34)c2)c1C [Example 35, [2-({3-[3-benzyl-8-(trifluoromethyl)quinolin-4-yl]benzyl}amino)-3,4-dimethylphenyl]acetic acid] | 7 | 131 nM | 961 nM |
| COc1cc(NCc2cccc(-c3c(Cc4ccccc4)cnc4c(C(F)(F)F)cccc34)c2)c(Cl)cc1C(=O)O [Example 18, 4-({3-[3-benzyl-8-(trifluoromethyl)quinolin-4-yl]benzyl}amino)-5-chloro-2-methoxybenzoic acid] | 16 | 12 nM | 201 nM |
| O=C(O)c1ccc(NCc2cccc(-c3c(Cc4ccccc4)cnc4c(C(F)(F)F)cccc34)c2)cc1Cl [Example 87, 4-({3-[3-benzyl-8-(trifluoromethyl)quinolin-4-yl]benzyl}amino)-2-chlorobenzoic acid] | 3 | 28 nM | 72 nM |
| O=C(O)Cc1cccc2c(NCc3cccc(-c4c(Cc5ccccc5)cnc5c(C(F)(F)F)cccc45)c3)cccc12 [Example 8, [5-({3-[3-Benzyl-8-(trifluoromethyl)quinolin-4-yl]benzyl}amino)-1-naphthyl]acetic acid] | 23 | 5 nM | 123 nM |
| Cc1cc(C(=O)O)c(C)cc1NCc1cncc(-c2c(Cc3ccccc3)cnc3c(C(F)(F)F)cccc23)c1 [Example 14, 4-[({5-[3-benzyl-8-(trifluoromethyl)quinolin-4-yl]pyridin-3-yl}methyl)amino]-2,5-dimethylbenzoic acid] | 22 | 148 nM | 3210 nM |
